Laboratory results reported in US20220267289A1, “SELECTIVE BCRP/ABCG2 TRANSPORTER INHIBITORS AS AGENTS TO ABOLISH RESISTANCE TO ANTI-CANCER AGENTS” (UNIVERSITE GRENOBLE ALPES, priority 2019, published 2022).
Where two headings read alike, the source gives them in different places.

Columns and labels:
[1] = molecular target: T1, BCRP/ABCG2 (Homo sapiens, UniProt Q9UNQ0); experiment: BCRP-mediated mitoxantrone efflux inhibition, ABCG2-transfected HEK293 cells, flow cytometry; settings: for inhibition at 30 min, 1 μM / inhibition at 30 min, 10 μM / inhibition at 30 min, 1 µM: human, probe mitoxantrone (MX), 4 μM
T1 sequence (Q9UNQ0 1-655): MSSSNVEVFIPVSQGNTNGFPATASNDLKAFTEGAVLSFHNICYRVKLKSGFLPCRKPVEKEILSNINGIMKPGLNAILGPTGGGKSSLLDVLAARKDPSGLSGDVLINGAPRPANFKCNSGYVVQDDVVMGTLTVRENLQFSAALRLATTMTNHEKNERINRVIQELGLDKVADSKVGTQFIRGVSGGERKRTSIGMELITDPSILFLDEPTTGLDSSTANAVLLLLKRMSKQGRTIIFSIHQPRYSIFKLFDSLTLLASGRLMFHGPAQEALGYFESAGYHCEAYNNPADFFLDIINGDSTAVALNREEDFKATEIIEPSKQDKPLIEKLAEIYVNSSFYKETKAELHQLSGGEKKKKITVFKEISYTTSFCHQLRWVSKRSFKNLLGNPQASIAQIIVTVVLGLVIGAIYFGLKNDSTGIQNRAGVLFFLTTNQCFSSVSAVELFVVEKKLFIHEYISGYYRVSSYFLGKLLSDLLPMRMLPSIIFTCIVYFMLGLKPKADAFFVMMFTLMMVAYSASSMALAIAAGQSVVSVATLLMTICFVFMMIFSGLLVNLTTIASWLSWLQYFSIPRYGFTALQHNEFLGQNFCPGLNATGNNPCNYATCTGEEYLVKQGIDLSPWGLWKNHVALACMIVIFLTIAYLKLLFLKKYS
Procedure: The cells were seeded in 96-well plates at a density of 5×10^4 cells/well in 200 μL of medium and incubated overnight. Then the growth medium was changed to fresh medium containing the compounds and in the presence of 4 μM MX as a fluorescent probe for BCRP-mediated efflux at a final concentration of 0.5% (v/v) DMSO. After 30 min incubation at 37° C., the medium was removed, and the cells were washed with 100 μL of Dulbecco's phosphate-buffered saline (DPBS) followed by dissociation of the cells for 5 min at 37° C. mediated by 25 μL trypsin. Finally, trypsin was neutralised with 175 μL of DPBS ice-cold with 2% bovine serum albumin (BSA) and the cells were carefully resuspended. As a selectivity assay, the same experiment was performed for P-gp and MRP1-mediated efflux with 0.5 μM R123 or 0.2 μM cAM as respective fluorescent substrates instead of MX.
Intracellular fluorescence was measured with a MacsQUANT VRB Analyzer flow cytometer (Miltenyi Biotec) with at least 5000 events recorded. While MX was excited at 635 nm and the fluorescence emission recorded in a 655-730 nm window, R123 and cAM were excited at 488 nm and recorded in a 525/50 nm filter. The compound inhibition yield was estimated by the following equation:
where G2FA is the fluorescence emission (a.u.) of accumulated fluorophore in cells expressing the efflux pump incubated with a fluorescent substrate and the test compound. G2FBG is the resulting background fluorescence emission (a.u.) in cells transfected with ABCG2 (no substrate or test compound). G2S is the fluorescence emission (a.u.) of accumulated fluorophore in cells expressing the efflux pump incubated with substrate only. HEKFA is the fluorescence emission (a.u.) of accumulated fluorophore in control cells incubated with the substrate and test compound. HEKFBG is the resulting background fluorescence emission (a.u.) in control cells (no substrate or test compound). All values are given as the geometric mean fluorescence emission (a.u.) in a 655-730 nm filter (635 nm excitation) measured over 5000 events. The tests were performed in triplicate.

[2] = molecular target: T2, MRP1 (ABCC1) (Homo sapiens, UniProt P33527); experiment: MRP1-mediated calcein-AM efflux inhibition (selectivity assay), ABCC1-transfected Flp-In 293 cells; type: cell-based; settings: probe calcein-AM (cAM), 0.2 μM cAM; for inhibition at 30 min, 1 μM: [Inhibitor] 1 μM; for inhibition at 30 min, 10 μM: [Inhibitor] 10 μM
T2 construct: expressed in transfected cells; host or cells: Flp-In 293
Procedure: (§1) The tests were performed in triplicate.

[3] = molecular target: T3, P-gp (ABCB1) (Homo sapiens, UniProt P08183); experiment: P-gp-mediated rhodamine 123 efflux inhibition (selectivity assay), ABCB1-transfected NIH/3T3 cells; type: cell-based; settings: probe rhodamine 123 (R123), 0.5 μM R123; for inhibition at 30 min, 1 μM: [Inhibitor] 1 μM; for inhibition at 30 min, 10 μM: [Inhibitor] 10 μM
T3 construct: expressed in transfected cells; host or cells: NIH/3T3
Procedure: as §1

[4] = hydrolysis of tertiary butyl ester to inactive metabolite; cited from earlier work

T2 sequence (P33527 whole entry): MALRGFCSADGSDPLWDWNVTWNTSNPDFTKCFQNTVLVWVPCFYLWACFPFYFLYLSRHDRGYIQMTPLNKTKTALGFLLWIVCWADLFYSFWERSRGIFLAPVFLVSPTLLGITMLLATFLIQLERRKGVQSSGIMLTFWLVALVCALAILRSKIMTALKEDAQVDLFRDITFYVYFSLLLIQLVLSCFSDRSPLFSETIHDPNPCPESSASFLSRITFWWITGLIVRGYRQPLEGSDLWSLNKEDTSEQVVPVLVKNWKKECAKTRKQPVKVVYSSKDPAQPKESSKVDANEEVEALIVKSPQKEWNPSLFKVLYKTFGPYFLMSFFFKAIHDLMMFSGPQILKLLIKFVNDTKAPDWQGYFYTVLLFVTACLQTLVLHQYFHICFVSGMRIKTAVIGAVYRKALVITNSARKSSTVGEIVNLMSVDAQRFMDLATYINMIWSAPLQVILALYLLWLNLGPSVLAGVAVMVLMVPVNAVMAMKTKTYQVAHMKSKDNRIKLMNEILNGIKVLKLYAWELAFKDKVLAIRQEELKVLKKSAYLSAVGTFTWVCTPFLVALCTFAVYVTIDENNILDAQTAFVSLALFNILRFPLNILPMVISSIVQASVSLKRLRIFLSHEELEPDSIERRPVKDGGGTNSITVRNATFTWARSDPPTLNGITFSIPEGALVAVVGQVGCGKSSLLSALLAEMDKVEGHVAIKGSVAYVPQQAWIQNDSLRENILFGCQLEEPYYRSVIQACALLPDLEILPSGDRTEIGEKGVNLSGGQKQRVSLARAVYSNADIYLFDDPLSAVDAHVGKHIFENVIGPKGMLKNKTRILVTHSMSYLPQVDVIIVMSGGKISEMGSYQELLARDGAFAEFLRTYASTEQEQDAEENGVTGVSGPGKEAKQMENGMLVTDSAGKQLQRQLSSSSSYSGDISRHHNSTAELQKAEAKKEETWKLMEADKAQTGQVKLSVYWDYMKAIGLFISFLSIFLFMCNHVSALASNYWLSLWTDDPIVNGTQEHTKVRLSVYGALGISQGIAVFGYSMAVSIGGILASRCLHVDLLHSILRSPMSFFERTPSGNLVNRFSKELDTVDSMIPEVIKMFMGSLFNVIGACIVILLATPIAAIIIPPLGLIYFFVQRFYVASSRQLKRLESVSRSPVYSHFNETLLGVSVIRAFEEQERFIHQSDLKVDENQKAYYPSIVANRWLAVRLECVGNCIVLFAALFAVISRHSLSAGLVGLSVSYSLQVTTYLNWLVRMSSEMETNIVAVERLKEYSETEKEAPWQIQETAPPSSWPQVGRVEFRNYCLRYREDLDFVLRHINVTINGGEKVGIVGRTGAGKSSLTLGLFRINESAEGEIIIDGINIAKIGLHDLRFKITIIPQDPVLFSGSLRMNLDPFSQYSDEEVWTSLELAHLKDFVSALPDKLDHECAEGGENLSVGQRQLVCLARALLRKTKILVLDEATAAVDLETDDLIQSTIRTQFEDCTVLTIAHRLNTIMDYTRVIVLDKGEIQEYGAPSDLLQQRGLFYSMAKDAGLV
T3 sequence (P08183 whole entry): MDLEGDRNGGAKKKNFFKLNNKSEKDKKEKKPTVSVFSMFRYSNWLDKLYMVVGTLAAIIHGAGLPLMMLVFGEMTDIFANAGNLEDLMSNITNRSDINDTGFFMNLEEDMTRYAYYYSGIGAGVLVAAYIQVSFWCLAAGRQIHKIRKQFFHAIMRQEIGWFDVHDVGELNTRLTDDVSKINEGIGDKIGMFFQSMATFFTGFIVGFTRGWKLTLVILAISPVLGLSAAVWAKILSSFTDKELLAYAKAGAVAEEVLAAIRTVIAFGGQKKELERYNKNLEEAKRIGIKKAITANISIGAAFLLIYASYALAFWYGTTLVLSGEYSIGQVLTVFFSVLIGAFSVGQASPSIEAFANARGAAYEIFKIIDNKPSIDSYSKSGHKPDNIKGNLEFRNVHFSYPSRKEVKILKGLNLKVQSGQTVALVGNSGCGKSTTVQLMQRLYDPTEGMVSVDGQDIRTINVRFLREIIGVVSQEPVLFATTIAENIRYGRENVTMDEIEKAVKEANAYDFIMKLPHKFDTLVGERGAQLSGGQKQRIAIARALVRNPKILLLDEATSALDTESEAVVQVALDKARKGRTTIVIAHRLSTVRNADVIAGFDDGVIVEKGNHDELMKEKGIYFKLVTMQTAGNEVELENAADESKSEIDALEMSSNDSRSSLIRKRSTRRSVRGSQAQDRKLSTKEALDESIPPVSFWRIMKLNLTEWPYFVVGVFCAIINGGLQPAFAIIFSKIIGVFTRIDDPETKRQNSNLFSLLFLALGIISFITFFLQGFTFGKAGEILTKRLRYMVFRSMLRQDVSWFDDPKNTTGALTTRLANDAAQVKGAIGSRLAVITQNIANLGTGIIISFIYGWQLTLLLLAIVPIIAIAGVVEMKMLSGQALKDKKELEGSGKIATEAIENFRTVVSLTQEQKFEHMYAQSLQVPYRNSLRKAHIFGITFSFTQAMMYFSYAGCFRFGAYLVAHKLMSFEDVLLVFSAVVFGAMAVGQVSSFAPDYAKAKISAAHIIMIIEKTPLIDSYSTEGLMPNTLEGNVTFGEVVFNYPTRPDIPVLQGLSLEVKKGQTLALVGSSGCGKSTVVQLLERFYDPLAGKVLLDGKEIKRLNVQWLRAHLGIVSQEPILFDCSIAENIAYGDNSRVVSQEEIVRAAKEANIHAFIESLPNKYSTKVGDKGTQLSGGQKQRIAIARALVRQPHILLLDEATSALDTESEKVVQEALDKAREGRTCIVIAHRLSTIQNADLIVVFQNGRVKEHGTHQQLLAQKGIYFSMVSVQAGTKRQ

Row | SMILES | IC50 ([1]; ABCG2 inhibition, Table 2) [nM] | melting point [°C] | inhibition at 30 min, 1 μM [1] [%] | inhibition at 30 min, 10 μM [1] [%] | IC50 [1] [nM] | inhibition at 30 min, 1 μM [2] [%] | inhibition at 30 min, 10 μM [2] [%] | inhibition at 30 min, 1 μM [3] [%] | inhibition at 30 min, 10 μM [3] [%] | inhibition at 30 min, 1 µM [1] [%] | rapidly metabolised, time [4] [min]
1 | COc1ccc2[nH]cc(CCNC(=O)c3cc(=O)c4c(OCc5cc(Br)cc(Br)c5)cccc4o3)c2c1 [7b (series 3), ((3,5-dibromobenzyl)oxy)-N-(2-(5-methoxy-1H-indol-3-yl)ethyl)-4-oxo-4H-chromene-2-carboxamide] | 100 ± 10 |  |  |  |  |  |  |  |  |  | 
2 | O=C(N[C@H](Cc1c[nH]c2ccccc12)C(=O)O)c1cc(=O)c2c(OCc3ccc(Br)cc3)cccc2o1 [6e (series 1), (5-((4-bromobenzyl)oxy)-4-oxo-4H-chromene-2-carbonylamino)-D-tryptophan] |  | 185.5 to 186.7 | 6.1 ± 0.6 | 11.2 ± 2 |  |  |  |  |  |  | 
3 | COc1ccc2[nH]cc(CCNC(=O)c3cc(=O)c4c(OCc5ccc(Br)cc5)cccc4o3)c2c1 [MBL-II-141, reference compound] | 130 ± 90 |  |  |  |  |  |  |  |  |  | 
4 | O=C(N[C@@H](Cc1ccccc1)C(=O)O)c1cc(=O)c2c(OCc3ccc(Br)cc3)cccc2o1 [6d (series 1), (5-((4-bromobenzyl)oxy)-4-oxo-4H-chromene-2-carbonylamino)-L-phenylalanine] |  |  | 4 ± 0.7 | 6.5 |  |  |  |  |  |  | 
5 | CCC(C)[C@H](NC(=O)c1cc(=O)c2c(OCc3ccc(Br)cc3)cccc2o1)C(=O)OC (stereo partly shown) [5b (series 1)] |  |  |  | 115 ± 14 | 590 ± 80 |  |  |  |  |  | 
6 | COC(=O)[C@H](Cc1c[nH]c2ccccc12)NC(=O)c1cc(=O)c2c(OCc3ccccc3Br)cccc2o1 [5g (series 1), methyl (5-((2-bromobenzyl)oxy)-4-oxo-4H-chromene-2-carbonylamino)-L-tryptophanate] |  | 250 to 252.8 | 93.7 ± 17 | 39.7 ± 3.7 |  | 23 ± 2.5 | 16 ± 2.5 | 7.4 ± 0.3 | 5.3 ± 0.5 | 93.7 | 
7 | COC(=O)[C@@H](Cc1c[nH]c2ccccc12)NC(=O)c1cc(=O)c2c(OCc3ccc(Br)cc3)cccc2o1 [5i (series 1), methyl (5-((4-bromobenzyl)oxy)-4-oxo-4H-chromene-2-carbonylamino)-D-tryptophanate] |  | 236.2 to 237.9 | 85 ± 12 | 96.3 ± 19 | 290 ± 50 | 11.9 | 12.6 | 7.2 ± 1.3 | 6.1 ± 1.1 | 84.8 | 
8 | COC(=O)[C@@H](NC(=O)c1cc(=O)c2c(OCc3ccccc3Br)cccc2o1)C(C)C [5d (series 1), methyl (5-((2-bromobenzyl)oxy)-4-oxo-4H-chromene-2-carbonylamino)-L-valinate] |  | 127 to 128.2 | 87 ± 7 | 148 ± 6.7 | 50 ± 30 | 12.6 ± 1.3 | 17.8 ± 0.9 | 7.9 ± 0.7 | 6.5 ± 1.9 | 86.6 | 
9 | COc1ccc2[nH]cc(CCNC(=O)c3cc(=O)c4c(OCc5ccc(Br)cc5Br)cccc4o3)c2c1 [7a (series 3), 5-((2,4-dibromobenzyl)oxy)-N-(2-(5-methoxy-1H-indol-3-yl)ethyl)-4-oxo-4H-chromene-2-carboxamide] |  |  |  |  | 50 ± 10 |  |  |  |  |  | 
10 | CC[C@@H](C)[C@H](NC(=O)c1cc(=O)c2c(OCc3ccc(Br)cc3)cccc2o1)C(=O)N[C@H](C(=O)OC)C(C)C [7c (series 2)] |  |  |  |  | 250 ± 100 | 11.5 ± 0.4 | 15.3 ± 1.5 | 2.4 ± 2.1 | 10.6 ± 0.3 | 72.4 ± 7.1 | 
11 | CC[C@@H](C)[C@H](NC(=O)c1cc(=O)c2c(OCc3ccc(Br)cc3)cccc2o1)C(=O)N[C@@H](CC(C)C)C(=O)OC [7d (series 2), methyl (5-((4-bromobenzyl)oxy)-4-oxo-4H-chromene-2-carbonylamino)-L-alloisoleucyl-L-leucinate] |  |  |  |  | 110 ± 30 | 10.9 ± 1.4 | 14.7 ± 1 | 3.6 ± 0.2 | 5.9 ± 0.1 | 52.3 ± 5.1 | 
12 | CCC(C)[C@H](NC(=O)c1cc(=O)c2c(OCc3ccccc3Br)cccc2o1)C(=O)O (stereo partly drawn) [6a (series 1), (5-((2-bromobenzyl)oxy)-4-oxo-4H-chromene-2-carbonylamino)-L-alloisoleucine] |  | 242.8 to 243.7 | 0 | 1.6 ± 3.1 |  | 17.1 | 13.1 ± 2.4 | 7.8 | 7.9 ± 2.3 |  | 
13 | COC(=O)[C@H](Cc1c[nH]c2ccccc12)NC(=O)c1cc(=O)c2c(OCc3ccc(Br)cc3)cccc2o1 [5h (series 1), methyl (5-((4-bromobenzyl)oxy)-4-oxo-4H-chromene-2-carbonylamino)-L-tryptophanate] |  | 235.3 to 236.2 | 92 ± 15 | 87.7 ± 12 | 480 ± 70 | 10.3 | 17.4 | 7.4 ± 2.5 | 6.6 ± 1.4 | 96.4 | 
14 | CC[C@@H](C)[C@H](NC(=O)c1cc(=O)c2c(OCc3ccccc3Br)cccc2o1)C(=O)N[C@H](C(=O)OC)C(C)C [7a (series 2)] |  |  |  |  | 70 ± 10 | 11.1 ± 0.8 | 10.8 ± 2.8 | 0.1 | 0.2 | 84.8 ± 7.4 | 
15 | CC[C@@H](C)[C@H](NC(=O)c1cc(=O)c2c(OCc3ccccc3Br)cccc2o1)C(=O)N[C@@H](CC(C)C)C(=O)OC [7b (series 2)] |  |  |  |  | 70 ± 10 | 10.3 ± 0.7 |  | 1.7 ± 2.4 | 2.4 ± 0.5 | 82.5 ± 9.7 | 
16 | CCC(C)[C@H](NC(=O)c1cc(=O)c2c(OCc3ccccc3Br)cccc2o1)C(=O)OC (stereo partly shown) [5a (series 1)] |  | 123.1 to 125.7 | 78 ± 9 | 143 ± 22 | 100 ± 10 |  |  |  |  |  | 
17 | COC(=O)[C@H](CC(C)C)NC(=O)c1cc(=O)c2c(OCc3ccccc3Br)cccc2o1 [5c (series 1), methyl (5-((2-bromobenzyl)oxy)-4-oxo-4H-chromene-2-carbonylamino)-L-leucinate] |  | 60.3 to 60.4 | 115 ± 17 | 102 ± 21.7 | 140 ± 40 | 20.2 ± 2.7 | 19.2 ± 2.2 | 7 ± 1.1 | 4.8 ± 0.7 | 114 | 
18 | COC(=O)[C@H](Cc1ccccc1)NC(=O)c1cc(=O)c2c(OCc3ccc(Br)cc3)cccc2o1 [5f (series 1), methyl (5-((4-bromobenzyl)oxy)-4-oxo-4H-chromene-2-carbonylamino)-L-phenylalaninate] |  |  |  |  |  | 23 | 19 | 6.4 ± 1.5 | 6.8 ± 1.4 |  | 
19 | COc1ccc2c3c([nH]c2c1)[C@H](CC(C)C)N1C(=O)[C@H](CCC(=O)OC(C)(C)C)NC(=O)[C@@H]1C3 [Ko143] |  |  |  |  |  |  |  |  |  |  | 60
20 | CC[C@@H](C)[C@H](NC(=O)c1cc(=O)c2c(OCc3ccc(Br)cc3)cccc2o1)C(=O)O [6b (series 1), (5-((4-bromobenzyl)oxy)-4-oxo-4H-chromene-2-carbonyl)-L-alloisoleucine] |  |  |  |  |  | 21.9 ± 4.6 | 20.6 ± 1.2 | 7.7 ± 1.9 | 7.1 ± 0.6 |  | 
